From patent US20260000698A1 (priority 2022, published 2026)

Tests used:
Type in all cases: biochemical
DOT1L = biological target: T1, DOT1L (Homo sapiens, UniProt Q8TEK3); assay: Human MTase screening: DOT1L
T1 construct: purchased BPS Bioscience
Method: (§1) Assay conditions. The human methyltransferase inhibition assays were performed at BPS Bioscience (San Diego, CA, USA). All of the enzymatic reactions were conducted in duplicate at room temperature for 60-960 min in a 50 μL mixture containing proper methyltransferase assay buffer, S-adenosylmethionine (SAM), enzyme, and the test compound. These 50 μL reactions were carried out in wells of a substrate pre-coated plate. First, enzyme and inhibitor were added to assay wells and preincubated for 30 min at room temperature, then SAM was added to start the reaction. Final DMSO concentration was 1% in all reactions.
(§2) After enzymatic reactions, the reaction mixtures were discarded and each of the wells was washed three times with TBST buffer, and slowly shaken with Blocking Buffer for 10 min. Wells were emptied, and 100 μL of diluted primary antibody was added. The plate was then slowly shaken for 60 minutes at room temperature. […] Immediately, the luminescence of the samples was measured in a BioTek Synergy™ 2 (Winooski, VT, USA) microplate reader using Gen5 software.
(§3) Data analysis. […] The luminescence data/alpha counts were analyzed and compared. […] The percent activity in the presence of each compound was calculated according to the following equation: % activity=(C−C0)/(Ce−C0), where C=the luminescence/alpha counts in the presence of the compound.

EZH1 = biological target: T2, EZH1 (Homo sapiens, UniProt Q92800); assay: Human MTase screening: EZH1
T2 construct: purchased BPS Bioscience
Method: as §1, §2, §3

SUV39H1 = biological target: T3, SUV39H1 (Homo sapiens, UniProt O43463); assay: Human MTase screening: SUV39H1
T3 construct: purchased BPS Bioscience
T3 sequence (O43463 1-412): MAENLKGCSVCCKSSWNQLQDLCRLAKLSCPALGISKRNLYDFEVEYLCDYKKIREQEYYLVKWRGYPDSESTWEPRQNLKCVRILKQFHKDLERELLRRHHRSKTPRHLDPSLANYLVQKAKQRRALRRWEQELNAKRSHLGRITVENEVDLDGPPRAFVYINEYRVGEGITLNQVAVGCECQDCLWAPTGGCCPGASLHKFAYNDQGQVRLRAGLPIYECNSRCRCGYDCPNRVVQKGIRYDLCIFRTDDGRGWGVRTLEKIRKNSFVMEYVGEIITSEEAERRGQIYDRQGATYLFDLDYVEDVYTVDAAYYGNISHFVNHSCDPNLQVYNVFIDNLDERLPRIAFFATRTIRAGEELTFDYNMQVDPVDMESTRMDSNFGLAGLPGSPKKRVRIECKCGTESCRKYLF
Method: as §1, §2, §3

T1 sequence (Q8TEK3 whole entry): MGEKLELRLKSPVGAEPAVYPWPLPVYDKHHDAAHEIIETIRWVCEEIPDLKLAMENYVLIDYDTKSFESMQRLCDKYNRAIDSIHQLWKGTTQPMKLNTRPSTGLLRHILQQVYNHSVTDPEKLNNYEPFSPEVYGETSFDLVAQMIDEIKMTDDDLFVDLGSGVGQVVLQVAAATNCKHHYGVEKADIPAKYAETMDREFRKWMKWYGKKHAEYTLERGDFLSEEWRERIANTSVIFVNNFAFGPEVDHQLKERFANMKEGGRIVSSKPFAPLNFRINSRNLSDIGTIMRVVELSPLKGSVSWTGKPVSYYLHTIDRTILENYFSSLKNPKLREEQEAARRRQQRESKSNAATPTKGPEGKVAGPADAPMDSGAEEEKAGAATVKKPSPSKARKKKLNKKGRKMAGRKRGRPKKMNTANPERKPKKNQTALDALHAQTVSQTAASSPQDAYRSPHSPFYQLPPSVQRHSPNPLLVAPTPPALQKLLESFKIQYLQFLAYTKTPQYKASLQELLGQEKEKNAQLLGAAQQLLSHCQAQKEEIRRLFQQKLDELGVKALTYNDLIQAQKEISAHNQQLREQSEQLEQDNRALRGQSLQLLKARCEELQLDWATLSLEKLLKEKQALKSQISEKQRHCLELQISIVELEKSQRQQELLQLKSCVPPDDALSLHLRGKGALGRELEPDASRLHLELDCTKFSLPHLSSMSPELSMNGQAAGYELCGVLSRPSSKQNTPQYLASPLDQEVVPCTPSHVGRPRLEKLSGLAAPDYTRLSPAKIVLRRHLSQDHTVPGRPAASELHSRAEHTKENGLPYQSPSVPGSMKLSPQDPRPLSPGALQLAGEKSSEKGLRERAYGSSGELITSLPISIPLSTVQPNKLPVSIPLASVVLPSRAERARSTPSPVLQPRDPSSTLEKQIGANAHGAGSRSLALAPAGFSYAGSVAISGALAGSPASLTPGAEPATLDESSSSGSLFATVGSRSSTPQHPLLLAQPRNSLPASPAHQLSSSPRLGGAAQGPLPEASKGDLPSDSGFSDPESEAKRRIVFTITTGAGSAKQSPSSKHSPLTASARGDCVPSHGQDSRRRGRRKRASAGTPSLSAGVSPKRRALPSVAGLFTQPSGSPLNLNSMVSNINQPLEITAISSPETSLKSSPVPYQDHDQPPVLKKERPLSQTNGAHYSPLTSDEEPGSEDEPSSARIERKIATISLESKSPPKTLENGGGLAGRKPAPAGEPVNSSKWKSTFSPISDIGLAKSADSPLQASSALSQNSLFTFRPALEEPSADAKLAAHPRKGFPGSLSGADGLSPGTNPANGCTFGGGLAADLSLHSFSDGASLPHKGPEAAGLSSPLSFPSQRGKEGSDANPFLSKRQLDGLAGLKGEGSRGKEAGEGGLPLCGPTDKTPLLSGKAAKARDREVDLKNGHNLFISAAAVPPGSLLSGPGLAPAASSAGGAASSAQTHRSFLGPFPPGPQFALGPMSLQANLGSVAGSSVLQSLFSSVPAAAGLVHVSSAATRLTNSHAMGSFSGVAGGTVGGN
T2 sequence (Q92800 whole entry): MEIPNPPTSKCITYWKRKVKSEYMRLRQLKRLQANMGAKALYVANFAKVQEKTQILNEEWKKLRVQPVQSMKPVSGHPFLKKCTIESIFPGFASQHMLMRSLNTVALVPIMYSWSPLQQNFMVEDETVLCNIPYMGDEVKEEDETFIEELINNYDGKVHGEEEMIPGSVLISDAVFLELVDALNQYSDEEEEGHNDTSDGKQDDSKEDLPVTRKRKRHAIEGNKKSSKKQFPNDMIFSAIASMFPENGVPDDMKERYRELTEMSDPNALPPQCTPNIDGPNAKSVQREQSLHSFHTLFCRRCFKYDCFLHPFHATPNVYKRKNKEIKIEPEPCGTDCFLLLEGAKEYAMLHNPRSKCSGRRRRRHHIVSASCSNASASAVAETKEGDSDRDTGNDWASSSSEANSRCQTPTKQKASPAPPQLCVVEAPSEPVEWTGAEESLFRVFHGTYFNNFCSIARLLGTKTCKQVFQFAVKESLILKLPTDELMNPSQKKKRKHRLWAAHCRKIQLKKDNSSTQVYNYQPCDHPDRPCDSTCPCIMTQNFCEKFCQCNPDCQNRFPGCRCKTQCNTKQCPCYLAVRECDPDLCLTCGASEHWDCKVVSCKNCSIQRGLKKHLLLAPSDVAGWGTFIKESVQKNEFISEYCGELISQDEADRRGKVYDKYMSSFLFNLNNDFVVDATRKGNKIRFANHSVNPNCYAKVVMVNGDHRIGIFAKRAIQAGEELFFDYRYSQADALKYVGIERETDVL
T2 sequence (O75530 whole entry partner): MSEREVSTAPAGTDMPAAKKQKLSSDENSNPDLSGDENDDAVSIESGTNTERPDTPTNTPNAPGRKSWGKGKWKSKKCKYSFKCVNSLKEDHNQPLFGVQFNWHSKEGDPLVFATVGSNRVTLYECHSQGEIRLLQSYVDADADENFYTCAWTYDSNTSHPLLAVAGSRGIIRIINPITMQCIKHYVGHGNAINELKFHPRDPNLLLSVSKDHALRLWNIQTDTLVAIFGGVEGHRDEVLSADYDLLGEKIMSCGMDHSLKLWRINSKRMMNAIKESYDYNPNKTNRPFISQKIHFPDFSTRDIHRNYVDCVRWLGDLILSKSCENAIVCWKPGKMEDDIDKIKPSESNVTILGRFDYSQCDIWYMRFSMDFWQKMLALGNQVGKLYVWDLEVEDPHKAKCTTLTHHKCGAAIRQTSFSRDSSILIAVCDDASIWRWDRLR
T2 sequence (Q15022 whole entry partner): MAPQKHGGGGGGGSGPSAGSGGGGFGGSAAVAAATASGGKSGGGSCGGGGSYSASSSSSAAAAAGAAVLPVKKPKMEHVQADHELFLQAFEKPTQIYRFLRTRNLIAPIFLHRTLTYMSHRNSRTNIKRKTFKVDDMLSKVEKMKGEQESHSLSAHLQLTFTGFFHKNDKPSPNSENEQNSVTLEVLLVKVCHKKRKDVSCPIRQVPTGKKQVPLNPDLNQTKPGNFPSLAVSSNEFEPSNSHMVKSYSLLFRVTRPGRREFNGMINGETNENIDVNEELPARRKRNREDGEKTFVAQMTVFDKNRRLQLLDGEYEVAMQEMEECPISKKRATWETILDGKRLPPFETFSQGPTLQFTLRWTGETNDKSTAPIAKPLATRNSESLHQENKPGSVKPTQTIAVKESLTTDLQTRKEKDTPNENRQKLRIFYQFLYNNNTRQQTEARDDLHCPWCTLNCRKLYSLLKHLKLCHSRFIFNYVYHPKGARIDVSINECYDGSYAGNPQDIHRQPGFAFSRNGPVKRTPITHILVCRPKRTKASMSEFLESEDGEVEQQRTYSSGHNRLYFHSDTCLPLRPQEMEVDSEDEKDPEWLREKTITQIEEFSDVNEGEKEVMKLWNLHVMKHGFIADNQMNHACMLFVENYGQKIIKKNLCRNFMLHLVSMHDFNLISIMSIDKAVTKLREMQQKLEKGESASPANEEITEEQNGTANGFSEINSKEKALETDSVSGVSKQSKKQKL
T2 sequence (Q09028 whole entry partner): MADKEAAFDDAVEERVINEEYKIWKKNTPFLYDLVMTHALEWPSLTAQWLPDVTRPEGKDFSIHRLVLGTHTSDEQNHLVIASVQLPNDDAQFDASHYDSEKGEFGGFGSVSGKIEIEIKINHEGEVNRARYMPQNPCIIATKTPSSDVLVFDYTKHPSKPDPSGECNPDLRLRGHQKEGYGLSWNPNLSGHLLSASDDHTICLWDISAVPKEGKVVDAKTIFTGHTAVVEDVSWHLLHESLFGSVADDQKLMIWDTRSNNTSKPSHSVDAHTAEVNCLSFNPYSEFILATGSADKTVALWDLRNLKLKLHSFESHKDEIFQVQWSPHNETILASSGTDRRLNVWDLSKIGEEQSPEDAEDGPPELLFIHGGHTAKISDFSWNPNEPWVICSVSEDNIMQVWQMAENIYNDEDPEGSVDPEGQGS
T2 sequence (Q6ZN18 whole entry partner): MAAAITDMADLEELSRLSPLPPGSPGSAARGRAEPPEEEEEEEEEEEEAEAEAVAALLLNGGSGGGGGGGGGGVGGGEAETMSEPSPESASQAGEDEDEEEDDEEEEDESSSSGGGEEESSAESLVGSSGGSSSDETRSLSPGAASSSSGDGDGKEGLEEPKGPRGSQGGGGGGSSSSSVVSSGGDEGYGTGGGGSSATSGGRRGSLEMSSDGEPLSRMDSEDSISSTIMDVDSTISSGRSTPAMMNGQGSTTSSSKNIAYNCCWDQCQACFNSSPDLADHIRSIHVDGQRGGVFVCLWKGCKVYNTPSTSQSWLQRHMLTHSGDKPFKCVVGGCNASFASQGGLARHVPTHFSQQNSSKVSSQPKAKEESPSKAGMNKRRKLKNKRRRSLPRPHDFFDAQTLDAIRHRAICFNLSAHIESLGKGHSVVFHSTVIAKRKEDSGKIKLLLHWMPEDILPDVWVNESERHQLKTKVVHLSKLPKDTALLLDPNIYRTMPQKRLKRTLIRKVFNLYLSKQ

Nc1ncnc2c1ncn2[C@@H]1O[C@H](CNS(=O)(=O)c2ccc3ccccc3c2)[C@@H](O)[C@H]1O [Compound 3, N-(((2R,3S,4R,5R)-5-(6-Amino-9H-purin-9-yl)-3,4-dihydroxytetrahydrofuran-2-yl)methyl)naphthalene-2-sulfonamide]
inhibition at 10 µM (DOT1L): 10% | inhibition at 10 µM (EZH1): 2% | inhibition at 10 µM (SUV39H1): 11%
